Assay results published in patent US5770565A, “Peptides for reducing or inhibiting bone resorption” (priority 1994, dated 1998).
Where a SMILES comes first, the peptide text is derived from it. Bridges are numbered along the chain shown (N, C = ends).

Experiments:
Swiss-Webster mice = test: PTH-induced hypercalcemia assay; type: in vivo; details: single dose, infused 4 hr after PTH
Text: Parathyroid hormone (PTH) activates osteoclasts, which are involved in bone resorption. Associated with the increased osteoclast activity is an increase in serum calcium. The PTH-induced hypercalcemia assay measures the level of serum calcium, which is an indication of bone resorption in a subject (Fischer et al., Endocrinology 132:1411-1413 (1993), which is incorporated herein by reference).
Swiss-Webster mice, which had been parathyroidectomized two weeks prior to beginning the assay, were obtained from Taconic Lab Animals and Services (Germantown N.Y.). Femoral vein catheters (PE-50 fused with PE10 polyethylene tubing; Becton Dickinson; Parsippany, N.J.) were installed in the mice, flushed and locked with heparinized saline (1:10), sutured to adjacent muscle and internalized within the inguinal space of the incision before closing the incision with wound clips. […]
The experiment was initiated by feeding the mice a calcium-deficient diet overnight, then injecting the mice the following morning with a bolus of 0.2 mg PTH/kg (hPTH 1-34; Bachem; Torrance Calif.), intravenously. […] Various doses of a peptide or vehicle were infused into an animal for 4 hr, then ionized serum calcium again was measured. […] Serum calcium measurements were expressed as the difference between the value 30 min before the PTH pulse and 4 hr after peptide infusion was started. […]

[1] = system: αV β3 integrin, osteoclasts; test: series of assays of Example II for potency and selectivity (summary, FIG. 2)
Text: Peptides of the RGDNTic (SEQ ID NO: 56) pharmacophore group are characterized, in general, as having increased potency, whereas the peptides of the pharmacophore RGDDV (SEQ ID NO: 1) group generally have higher receptor selectivity. […] As used herein, the term "potency" or "potent" means that a peptide of the invention is active at a relatively low concentration in the assays described in Examples II and III. A potent peptide of the invention can be identified, for example, using the assays described in Examples II and III.
Selectivity can be due, for example, to the ability of a peptide of the invention to bind to αV β3 with greater affinity than it binds to other integrins. Thus, in addition to having selectivity, for example, for osteoclast binding to a matrix, a peptide of the invention also can display receptor selectivity and, therefore, more specifically alter receptor-mediated binding to a matrix. As used herein, the term "receptor selectivity" means that a peptide of the invention can bind to one receptor with greater affinity than it can bind to another receptor.

chick osteoclasts = test: chick osteoclast / total cell detachment assay; type: cell-based; details: FIG. 5
Description: Peptides were evaluated for their ability to detach osteoclasts from a matrix consisting of serum-coated microtiter plates. In prescreening assays, 5 μM of the various RGD peptides was used to identify RGD peptides that released at least 60% of the osteoclasts from the matrix.
Osteoclasts were isolated from embryonic chicks using a modification of the methods of Boyde et al., Br. Dent. J. 156:216 (1984) and Chambers et al., Endocrinology 116:234 (1985), each of which is incorporated herein by reference. […]
The cells were incubated for 90 min at 37° C. in an atmosphere containing 10% CO2. […] Cell layers were stained for 5 min using 0.1% crystal violet and multinucleated osteoclasts were counted by light microscopy. […]
RGD peptides that are selective for releasing osteoclasts, but not the other cell types, from the matrix were identified by extracting the crystal violet stain from fixed cells and comparing the amount of staining in a control well (no peptide) with the amount of staining following incubation of the cells with an RGD peptide. Crystal violet was extracted using 20% acetic acid and the optical density of the resulting solution was measured in 96 well microtiter plates by spectrophotometry at 562 nm. […]

rat osteoclasts = test: rat osteoclast attachment assay compared with MG63 or NRK cell attachment; type: cell-based; details: FCS substrate, FIGS. 7 and 8
Description: To determine the effect of a peptide on the attachment of rat osteoclasts in vitro, 100 μl aliquots of the rat pup bone cell suspension described in Example II.B.2., above, were added in triplicate to 96 well "MAXISORP" plates coated with specific substrates or with FCS. Substrate coated plates were used to determine the ability of peptides to inhibit attachment or induce detachment of an osteoclast from a ligand such as vitronectin, fibronectin, osteopontin or collagen I (Collaborative Research), which are ligands present in bone. Substrates were added to 96 well plates (50 μl of a 5-10 μg/ml solution in sodium carbonate, pH 9.5) and incubated for 2 hr at 37° C. For FCS control wells, 100 μl 10% FCS was added. Wells were aspirated, then washed 2×with PBS and blocked with 1% bovine serum albumin in PBS for 2 hr at 37° C. Wells were aspirated and washed again 2× with PBS. Cells were seeded in duplicate at 4×10^4 cells/well. […]
Following incubation, the medium and nonadherent cells were removed by aspiration from each well. […] Adherent osteoclasts were counted by light microscopy. […]
MG63 and NRK cell lines were purchased from ATTC (Rockville Md.). […] Following staining, the stain was extracted with 20% acetic acid and the OD562 of the extracted stain was determined. […]
Selectivity of a peptide can be determined by comparing the results of FIGS. 7 and 8 (see, also FIG. 2).

CC(C)[C@@H]1NC(=O)[C@H](CC(=O)O)NC(=O)[C@H](CC(=O)O)NC(=O)CNC(=O)[C@H](CCCNC(=N)N)NC(=O)CC[C@@H](C(N)=O)NC1=O [peptide 386, RGDDVE-NH2] (RGDDVE-NH2; lactam N-6)
serum calcium level (Swiss-Webster mice): relatively low level of serum calcium | potency and selectivity together (summary classification) [1]: both potent and selective | receptor selectivity (summary classification) [1]: particularly receptor selective | activity of peptides with minimally essential elements ([1]; FIG. 2): demonstrate activity | selective detachment of osteoclasts as compared to other cell types (chick osteoclasts): selective detachment of osteoclasts | selectivity: osteoclast attachment versus MG63 or NRK attachment (rat osteoclasts): selective
